The assay has as its system aP2 mRNA production. Description: aP2 assay for agonist (induction of aP2 mRNA production, bDNA assay). Type of assay: cell-based. To be noted: preadipocytes.

`CCCCCCN1C(=O)C(CCOc2ccccc2CC(=O)O)Oc2ccccc21` (stereo not shown) [Compound 1, Benzeneacetic acid, 2-[2-(4-hexyl-3,4-dihydro-3-oxo-2H-1,4-benzoxazin-2-yl)ethoxy]-]: the “Agonist Intrinsic Activity” value was 40.4 fold increase over vehicle.

The values above are taken from patent US6599899B2, “Benzoxazinones as peroxisome proliferator activated receptor gamma modulators and method of treatment” (Ortho-McNeil Pharmaceutical, Inc., priority 2000, dated 2003).
